Assay results published in patent US7465817B2, “Inositolized phospholipids” (Charite-Universitats Medizin Berlin, priority 2002, dated 2008).
Entries after “also recorded” stand apart in the source; their conditions may differ. Read-outs that look alike come from different tables or passages of the source.

Assays:
[1] = tested on: HaCaT cells; test: cell matrix adhesion to ECM proteins (collagen IV, fibronectin, laminin), crystal violet; assay type: cell-based, human; conditions: for cell adhesion to extracellular matrix components fibronectin, laminin and collagen IV: treatment for 2 h; for cell matrix adhesion after incubation (summary of advantages): HePC with delayed onset of action
Experimental: In order to study the effect of Glc-PAF, Ino-PAF and Glc-PC (as specified in Example 2) on cell matrix adhesion HaCaT cells were rested 15 min at 4° C. and allowed to adhere to different ECM proteins (collagen IV, fibronectin and laminin) for 90 min at 37° C. The proteins of the extracellular matrix (ECM) were loaded onto the plastic surface by overnight treatment at 4° C. After fixing and staining in crystal violet, coloring was measured at 570 nm. Per test were used 50,000 cells, and quadruple testing was performed.

[2] = tested on: SCC-25 cells; test: antiproliferative effect in squamous carcinoma cell line; assay type: cell-based; conditions: SCC-25 tumor cells
Experimental: (§1) The impact of glycosidation in the glycosidated phospholipid analogs was determined in serum-free cell cultures of human keratinocytes (HaCaT cells) and a squamous carcinoma cell line (SCC-25).
In SCC-25 cells the antiproliferative effects of the glycosidated phospholipid analogs is much stronger.

[3] = low but antiproliferative concentrations; cited from earlier work
[4] = tested on: HaCaT cells; test: cell proliferation ELISA, based on the incorporation of BrdU (Roche); design: species or system human; conditions: for IC50: serum-free, text says μmolar range; for antiproliferative effect (in words): non cytotoxic concentrations
Experimental: as §1
Ino-PAF as obtained in Example 1, Glc-PC and Glc-PAF (synthesis according to Mickeleit, M. et al., Angew. Chem. Int. Ed. Engl. 34:2667-2669 (1995) and 37:351-353 (1998)), and HePC (Hexadecylphosphocholine; commercially available as Miltefosin) were tested in the cell proliferation ELISA, BrdU (col.), Roche in an amount of from 0.6 to 5 μM. Prior to the assay the cells were kept for 2 h in serum-free keratinocyte medium. Assays were performed using 10.000 cells per test, at least quadruple testing.

[5] = tested on: HaCaT cells; test: Viability determined by the LDH assay; assay type: cell-based; conditions: human
[6] = cited from earlier work
[7] = tested on: HaCaT cells; conditions: literature, Schoen et al. 1996; cited from earlier work
[8] = tested on: β1-Integrin; test: β1 integrin surface expression and clustering, immunofluorescence; assay type: cell-based, human; conditions: HaCaT cells
Experimental: HaCaT cells were treated with Ino-PAF (obtained as described in Example 1) for 48 h. For the immunofluorescence measurement, cells were treated with 5 μM Ino-PAF. The antibody utilized for detection was directed against the β1-Integrin, which is a surface receptor conferring cell-matrix-adhesion. Immunofluorescence analysis was performed on a collagen IV matrix. 5×10^4 cells/well were left to adhere for 90 min and stained with K20-FITC (anti-β1) or Phalloidin-TRITC respectively.

[9] = tested on: HaCaT cells; test: cell proliferation ELISA, based on the incorporation of BrdU (Roche); conditions: Homo sapiens, Fischer et al. unpublished data, read-out: antiproliferative effect IC50
[10] = tested on: protein kinase C (PKC); conditions: cited from earlier work

Compound | cell adhesion to extracellular matrix components fibronectin, laminin and collagen IV [1] | antiproliferative effect [2] | apoptosis [3] | IC50 ([4]; Homo sapiens) [µM] | antiproliferative effect (in words) [4] | Viability (LD50) [5] | water solubility [6] | cell matrix adhesion after incubation (summary of advantages) [1] | IC50 [4] [µM] | cell matrix adhesion [7] | surface expression of integrins [8] | integrin clustering ([8]; 5 μM, 48 h) | IC50 [9] [µM] | toxic effect LD50 [5] [µM] | increase of PKC activity ([10]; HaCaT cells, non-toxic concentrations) | inhibition of PKC activity in vitro ([10]; high, toxic concentrations)
CCCCCCCCCCCCCCCCCCOC[C@H](COP(=O)([O-])OCC[N+](C)(C)C)O[C@H]1O[C@H](CO)[C@@H](O)[C@H](O)[C@H]1O [Glc-PAF, 1-O-octadecyl-2-O-α-D-gluco-pyranosyl-sn-glycero-3-phosphocholine] | increases cell adhesion | sub-μmolar range | cause apoptosis | 5 | inhibited cell proliferation | 9 | water-soluble | – | – | – | – | – | – | – | – | –
CCCCCCCCCCCCCCCCOP(=O)([O-])OCC[N+](C)(C)C [HePC, hexadecyl-phosphocholine] | – | – | – | – | – | – | – | increased | 4.5 | reduce cell matrix adhesion | – | – | – | – | – | –
CCCCCCCCCCCCCCCCCCOC[C@H](COP(=O)([O-])OCC[N+](C)(C)C)OCCO[C@@H]1[C@@H](O)[C@H](O)[C@@H](O)[C@H](O)[C@@H]1O [Ino-PAF, inositol-C2-PAF] | concentration-dependent increase; also recorded: increases cell adhesion | – | – | 1.8 | strong antiproliferative effects; also recorded: stronger antiproliferative effects than the therapeutically used HePC | 15 | – | increased | – | – | not affected | induces integrin clustering | 1.7 | > 10 | – | –
glyceroglucophosphocholine [Glc-PC] | – | – | – | – | strong antiproliferative effects; also recorded: inhibited cell proliferation | 50 | water-soluble | – | 9 | – | – | – | – | – | up to 70% | do not inhibit PKC activity
